Here are results for 13 molecules from ChEMBL document CHEMBL1201862, “PubChem BioAssay data set” (2004).

For experiment [1], the target named is Benomyl/methotrexate resistance protein (Candida albicans, UniProt P28873). Put plainly: CaMdr1 efflux pump inhibitor potency, dose response, singleplex, Cherry Pick1 hits (AID 588608). The experiment is classed as functional.
In experiment [2] the target is Protein disulfide-isomerase (Homo sapiens, UniProt P07237). Put plainly: PDI inhibitors, insulin aggregation turbidity, dose response, biochemical, absorbance, cherry-picked samples (AID 602350). The experiment is classed as functional.
Protein disulfide-isomerase, sequence (P07237 whole entry): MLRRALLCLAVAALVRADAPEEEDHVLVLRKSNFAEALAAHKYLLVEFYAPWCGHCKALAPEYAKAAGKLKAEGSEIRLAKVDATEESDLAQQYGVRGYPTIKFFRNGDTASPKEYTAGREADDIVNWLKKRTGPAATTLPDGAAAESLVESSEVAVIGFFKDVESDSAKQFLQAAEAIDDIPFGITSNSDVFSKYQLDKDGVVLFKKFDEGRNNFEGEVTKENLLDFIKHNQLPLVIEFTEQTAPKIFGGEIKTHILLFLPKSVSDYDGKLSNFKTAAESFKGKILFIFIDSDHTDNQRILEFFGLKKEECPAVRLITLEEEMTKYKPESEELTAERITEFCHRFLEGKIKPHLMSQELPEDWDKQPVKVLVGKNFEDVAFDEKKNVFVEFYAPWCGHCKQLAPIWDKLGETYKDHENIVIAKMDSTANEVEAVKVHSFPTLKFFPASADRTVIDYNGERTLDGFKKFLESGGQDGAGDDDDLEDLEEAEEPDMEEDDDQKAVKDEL
In experiment [3] the target is 26S proteasome non-ATPase regulatory subunit 14 (Homo sapiens, UniProt O00487). Briefly: inhibition of proteasome subunit RPN11 – biochemical, fluorescence polarization, uHTS hits, confirmation (AID 602368). It is filed as functional. (Polarisation of emitted light reports the rotation of a fluorescent probe.)
26S proteasome non-ATPase regulatory subunit 14, sequence (O00487 whole entry): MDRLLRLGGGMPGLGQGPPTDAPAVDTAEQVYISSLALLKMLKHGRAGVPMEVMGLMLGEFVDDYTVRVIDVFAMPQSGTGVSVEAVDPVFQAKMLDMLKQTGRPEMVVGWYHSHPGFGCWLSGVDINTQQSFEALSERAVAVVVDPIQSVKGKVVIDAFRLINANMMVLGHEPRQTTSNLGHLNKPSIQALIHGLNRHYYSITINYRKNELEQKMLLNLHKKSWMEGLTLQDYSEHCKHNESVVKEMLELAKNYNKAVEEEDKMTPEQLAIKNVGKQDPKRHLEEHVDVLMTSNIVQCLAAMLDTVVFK
In experiment [4] the target is 72 kDa type IV collagenase (Homo sapiens, UniProt P08253). Briefly: Dose Response validation of uHTS RPN11 inhibitor hits using a MMP-2 Fluorescence assay. It is filed as functional.
72 kDa type IV collagenase, sequence (P08253 whole entry): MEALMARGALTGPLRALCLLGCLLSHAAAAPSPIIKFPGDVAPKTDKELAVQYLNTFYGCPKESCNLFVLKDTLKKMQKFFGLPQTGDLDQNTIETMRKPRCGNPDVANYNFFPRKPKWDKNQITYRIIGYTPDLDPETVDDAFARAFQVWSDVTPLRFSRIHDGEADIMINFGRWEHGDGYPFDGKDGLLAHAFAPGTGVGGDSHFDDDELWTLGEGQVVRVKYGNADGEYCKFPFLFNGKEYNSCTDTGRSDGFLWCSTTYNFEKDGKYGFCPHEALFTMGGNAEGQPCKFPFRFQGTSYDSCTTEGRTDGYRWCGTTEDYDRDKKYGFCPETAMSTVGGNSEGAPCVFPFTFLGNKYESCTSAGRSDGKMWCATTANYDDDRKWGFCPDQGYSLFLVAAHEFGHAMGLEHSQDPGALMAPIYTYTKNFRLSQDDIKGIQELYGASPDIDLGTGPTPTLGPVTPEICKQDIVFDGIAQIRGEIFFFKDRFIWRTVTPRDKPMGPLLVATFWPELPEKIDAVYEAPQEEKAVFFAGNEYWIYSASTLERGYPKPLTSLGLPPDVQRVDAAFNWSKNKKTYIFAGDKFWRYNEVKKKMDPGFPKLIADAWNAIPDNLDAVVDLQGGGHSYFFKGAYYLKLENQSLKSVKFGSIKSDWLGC
The target of experiment [5] is Prothrombin (Bos taurus, UniProt P00735). Put plainly: thrombin inhibition, dose response, biochemical, fluorescence polarization, uHTS hits (AID 602369). The experiment is classed as functional.
For experiment [6], the target named is Tyrosine-protein phosphatase non-receptor type 11 (Homo sapiens, UniProt Q06124). Put plainly: SHP2 phosphatase inhibition, dose response, selectivity assay for STEP inhibitor project, biochemical (AID 602367). The following applies: read-out: IC50_Mean. The experiment is classed as functional.
Experiment [7] concerns the target Dual specificity protein phosphatase 3 (Homo sapiens, UniProt P51452). Briefly: VHR phosphatase inhibition, dose response, selectivity assay for STEP inhibitor project, biochemical (AID 602374). The experiment is classed as functional. The conditions noted are these: read-out: IC50_Mean.
In experiment [8] the target is Tyrosine-protein phosphatase non-receptor type 5 (Homo sapiens, UniProt P54829). Briefly: STEP phosphatase inhibitors, confirmation, biochemical, fluorescence intensity, uHTS hits (AID 602372). The following applies: read-out: IC50_Mean. It is filed as functional.
Tyrosine-protein phosphatase non-receptor type 5, sequence (P54829 whole entry): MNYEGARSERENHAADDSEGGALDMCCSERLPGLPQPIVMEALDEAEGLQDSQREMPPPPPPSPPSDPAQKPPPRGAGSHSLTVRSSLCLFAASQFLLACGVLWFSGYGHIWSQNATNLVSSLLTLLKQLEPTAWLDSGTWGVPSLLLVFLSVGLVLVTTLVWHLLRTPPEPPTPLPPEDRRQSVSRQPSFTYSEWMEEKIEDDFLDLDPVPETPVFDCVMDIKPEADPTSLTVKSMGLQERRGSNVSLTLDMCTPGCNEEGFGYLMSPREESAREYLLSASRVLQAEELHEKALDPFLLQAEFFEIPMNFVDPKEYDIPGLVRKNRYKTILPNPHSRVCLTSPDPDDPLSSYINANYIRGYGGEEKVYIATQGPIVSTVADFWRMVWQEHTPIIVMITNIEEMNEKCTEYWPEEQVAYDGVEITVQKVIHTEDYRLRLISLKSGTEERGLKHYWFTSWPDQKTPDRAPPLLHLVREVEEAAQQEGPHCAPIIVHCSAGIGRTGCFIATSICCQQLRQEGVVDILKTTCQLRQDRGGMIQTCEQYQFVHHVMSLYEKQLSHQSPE
The subject of experiment [9] is INS1. Put plainly: beta cell apoptosis inhibitors, cytokine rescue, dose response, luminescence, retest (AID 449756).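 Further: cell death triggered by IL-1 beta plus TNF-alpha plus IFN-gamma mixture; protective hits raise ATP signal compared with cytokine alone wells.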 The experiment is classed as functional, cell-based. The conditions noted are these: Rattus norvegicus.
For experiment [10], the target named is T1, High affinity choline transporter 1 (Homo sapiens, UniProt Q9GZV3).
T1 sequence (Q9GZV3 whole entry): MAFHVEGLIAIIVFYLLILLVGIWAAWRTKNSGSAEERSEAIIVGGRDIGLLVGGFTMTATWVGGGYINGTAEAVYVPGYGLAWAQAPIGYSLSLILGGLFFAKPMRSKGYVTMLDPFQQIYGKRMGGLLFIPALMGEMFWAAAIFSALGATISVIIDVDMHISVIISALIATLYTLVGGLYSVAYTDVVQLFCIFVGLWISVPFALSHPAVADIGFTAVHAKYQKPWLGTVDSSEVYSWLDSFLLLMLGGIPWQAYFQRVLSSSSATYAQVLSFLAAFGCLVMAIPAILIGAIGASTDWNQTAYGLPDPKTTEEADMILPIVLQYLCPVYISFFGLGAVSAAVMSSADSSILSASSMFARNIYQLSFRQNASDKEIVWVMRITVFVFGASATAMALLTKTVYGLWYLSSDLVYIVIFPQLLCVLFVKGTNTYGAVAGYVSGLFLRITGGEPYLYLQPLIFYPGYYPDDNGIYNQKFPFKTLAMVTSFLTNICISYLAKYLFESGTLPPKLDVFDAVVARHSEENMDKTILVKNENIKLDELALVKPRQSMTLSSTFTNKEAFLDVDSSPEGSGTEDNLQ
Briefly: CHT inhibitors, dose response, cell-based, 10-point CRC, membrane potential dye (AID 588401).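 Further: membrane potential dye fluorescence of choline-evoked depolarization via CHT.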 The experiment is classed as functional.

The target of experiment [11] is T1, High affinity choline transporter 1. Briefly: CHT inhibitors, dose response, cell-based, 5-point CRC, membrane potential dye (AID 504840). The experiment is classed as functional.
Experiment [12] has as its target Potassium voltage-gated channel subfamily KQT member 2 (Rattus norvegicus, UniProt O88943). Put plainly: KCNQ2 potassium channel inhibitors, dose response, cell-based, automated electrophysiology, set II, rat KCNQ2 (AID 588637). It is filed as functional.
The target of experiment [13] is T2, Sentrin-specific protease 7 (Homo sapiens, UniProt Q9BQF6).
T2 sequence (Q9BQF6 whole entry): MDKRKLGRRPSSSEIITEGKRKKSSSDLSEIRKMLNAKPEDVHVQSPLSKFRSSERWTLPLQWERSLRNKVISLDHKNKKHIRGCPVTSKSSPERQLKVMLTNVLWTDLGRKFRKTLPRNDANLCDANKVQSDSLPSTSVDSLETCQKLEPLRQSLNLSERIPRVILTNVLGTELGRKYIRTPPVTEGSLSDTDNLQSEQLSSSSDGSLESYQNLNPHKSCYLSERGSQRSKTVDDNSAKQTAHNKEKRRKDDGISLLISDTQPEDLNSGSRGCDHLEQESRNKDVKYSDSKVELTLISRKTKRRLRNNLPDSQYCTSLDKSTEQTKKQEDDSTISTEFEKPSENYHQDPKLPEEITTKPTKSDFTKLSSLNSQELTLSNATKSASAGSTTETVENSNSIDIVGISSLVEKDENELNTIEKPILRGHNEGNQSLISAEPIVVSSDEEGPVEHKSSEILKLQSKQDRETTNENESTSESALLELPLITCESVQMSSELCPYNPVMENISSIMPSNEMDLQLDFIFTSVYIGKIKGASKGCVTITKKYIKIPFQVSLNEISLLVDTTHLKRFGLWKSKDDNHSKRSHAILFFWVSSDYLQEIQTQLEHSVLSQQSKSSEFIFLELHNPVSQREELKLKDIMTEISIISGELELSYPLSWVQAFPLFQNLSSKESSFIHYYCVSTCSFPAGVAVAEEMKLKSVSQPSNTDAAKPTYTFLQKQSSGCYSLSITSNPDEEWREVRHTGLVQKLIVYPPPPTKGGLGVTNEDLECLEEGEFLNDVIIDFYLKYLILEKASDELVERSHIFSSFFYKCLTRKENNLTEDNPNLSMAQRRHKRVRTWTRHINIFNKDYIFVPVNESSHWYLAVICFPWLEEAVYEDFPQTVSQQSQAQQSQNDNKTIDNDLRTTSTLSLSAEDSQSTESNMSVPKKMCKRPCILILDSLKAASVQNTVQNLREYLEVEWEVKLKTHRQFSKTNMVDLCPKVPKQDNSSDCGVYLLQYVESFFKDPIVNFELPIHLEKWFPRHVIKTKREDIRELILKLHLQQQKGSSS
Briefly: SENP7 protease inhibitors, SAR follow-up, biochemical, luminescence (AID 504497). It is filed as functional.

Experiment [14] has as its target T3, Sentrin-specific protease 8 (Homo sapiens, UniProt Q96LD8).
T3 sequence (Q96LD8 whole entry): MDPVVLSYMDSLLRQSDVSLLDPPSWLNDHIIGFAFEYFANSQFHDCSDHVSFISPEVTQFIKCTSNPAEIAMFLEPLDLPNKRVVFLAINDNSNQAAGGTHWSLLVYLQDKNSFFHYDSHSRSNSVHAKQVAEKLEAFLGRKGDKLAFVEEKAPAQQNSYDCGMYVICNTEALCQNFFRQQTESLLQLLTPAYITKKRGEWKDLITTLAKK
Briefly: SENP8 protease inhibitors, SAR follow-up, biochemical, luminescence (AID 504501). The experiment is classed as functional.

Experiment [15] concerns the target T4, Sentrin-specific protease 6 (Homo sapiens, UniProt Q9GZR1).
T4 sequence (Q9GZR1 whole entry): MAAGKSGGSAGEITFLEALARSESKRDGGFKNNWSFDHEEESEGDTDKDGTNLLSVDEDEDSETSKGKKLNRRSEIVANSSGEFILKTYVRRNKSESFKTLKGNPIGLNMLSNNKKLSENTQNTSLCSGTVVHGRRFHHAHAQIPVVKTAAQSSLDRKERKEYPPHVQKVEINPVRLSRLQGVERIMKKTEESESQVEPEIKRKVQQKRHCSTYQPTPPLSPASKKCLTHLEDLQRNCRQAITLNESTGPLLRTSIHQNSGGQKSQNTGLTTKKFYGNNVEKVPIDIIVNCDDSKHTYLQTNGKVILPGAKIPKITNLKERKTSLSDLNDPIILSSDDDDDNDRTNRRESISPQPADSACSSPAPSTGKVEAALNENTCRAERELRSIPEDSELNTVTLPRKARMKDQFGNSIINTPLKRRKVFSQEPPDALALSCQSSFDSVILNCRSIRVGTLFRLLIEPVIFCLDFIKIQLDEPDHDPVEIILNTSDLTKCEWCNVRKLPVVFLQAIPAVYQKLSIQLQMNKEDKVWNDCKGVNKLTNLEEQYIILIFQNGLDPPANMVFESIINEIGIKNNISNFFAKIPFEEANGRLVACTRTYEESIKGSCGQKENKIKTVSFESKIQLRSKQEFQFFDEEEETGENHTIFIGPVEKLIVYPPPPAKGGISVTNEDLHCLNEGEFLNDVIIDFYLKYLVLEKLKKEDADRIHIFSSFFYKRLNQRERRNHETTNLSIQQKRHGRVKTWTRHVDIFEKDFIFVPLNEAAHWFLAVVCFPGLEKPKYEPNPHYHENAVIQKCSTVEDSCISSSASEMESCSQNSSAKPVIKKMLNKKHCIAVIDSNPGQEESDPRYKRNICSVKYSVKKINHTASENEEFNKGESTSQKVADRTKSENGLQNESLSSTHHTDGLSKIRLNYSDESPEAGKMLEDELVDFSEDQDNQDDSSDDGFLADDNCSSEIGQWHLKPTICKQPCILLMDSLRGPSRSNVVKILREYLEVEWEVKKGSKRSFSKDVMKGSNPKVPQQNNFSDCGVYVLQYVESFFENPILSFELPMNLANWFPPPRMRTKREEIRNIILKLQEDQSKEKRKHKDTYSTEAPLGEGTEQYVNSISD
Briefly: SAR Analysis of small molecule inhibitors of Sentrin-specific protease 6 (SENP6) using a Luminescent assay. [Related pubchem assays (depositor defined):AID2582, AID2599]. It is filed as functional.

For experiment [16], the target named is T5, Caspase-3 (Homo sapiens, UniProt P42574).
T5 sequence (P42574 whole entry): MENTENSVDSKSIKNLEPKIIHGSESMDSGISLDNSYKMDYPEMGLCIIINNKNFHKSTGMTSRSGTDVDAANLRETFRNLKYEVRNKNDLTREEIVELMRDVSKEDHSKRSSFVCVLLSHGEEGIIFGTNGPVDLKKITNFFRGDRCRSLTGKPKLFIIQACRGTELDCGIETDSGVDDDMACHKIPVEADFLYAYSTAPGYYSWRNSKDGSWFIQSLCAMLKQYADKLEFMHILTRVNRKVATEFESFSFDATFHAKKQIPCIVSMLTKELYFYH
Briefly: SAR Analysis of small molecule inhibitors of Sentrin-specific proteases (SENPs) using a Caspase-3 Selectivity assay. [Related pubchem assays (depositor defined):AID2540, AID2599, AID434973, AID489001]. It is filed as functional.

Experiment [17] concerns the target Melanin-concentrating hormone receptor 1 (Homo sapiens, UniProt Q99705). Put plainly: Late-stage fluorescence-based counterscreen for antagonists of the G-protein coupled receptor 7 (GPR7): cell-based dose response assay to identify antagonists of the melanin-concentrating hormone receptor 1 (MCHR1) Set 5. The experiment is classed as functional. For orientation: The purpose of a counterscreen is to sort out artefacts and off-target activity.

The target of experiment [18] is Cytochrome P450 3A4 (Homo sapiens, UniProt P08684). The conditions noted are these: Potency.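 Further: confirmatory qHTS run detecting inhibitors and substrates of CYP3A4.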
Cytochrome P450 3A4, sequence (P08684 whole entry): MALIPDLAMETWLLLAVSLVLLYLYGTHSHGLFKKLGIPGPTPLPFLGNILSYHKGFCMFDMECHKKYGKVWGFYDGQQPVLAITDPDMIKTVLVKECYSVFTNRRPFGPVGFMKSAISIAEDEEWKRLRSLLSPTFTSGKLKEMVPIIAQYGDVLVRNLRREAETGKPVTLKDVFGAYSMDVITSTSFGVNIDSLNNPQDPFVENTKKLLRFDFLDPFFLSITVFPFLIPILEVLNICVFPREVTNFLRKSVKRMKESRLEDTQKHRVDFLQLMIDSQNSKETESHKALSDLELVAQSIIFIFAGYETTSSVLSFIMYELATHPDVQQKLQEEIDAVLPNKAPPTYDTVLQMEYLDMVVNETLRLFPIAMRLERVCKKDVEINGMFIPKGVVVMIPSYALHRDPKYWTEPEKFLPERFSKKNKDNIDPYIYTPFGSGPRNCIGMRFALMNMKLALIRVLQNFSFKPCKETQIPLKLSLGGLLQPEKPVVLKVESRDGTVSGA
Experiment [19] addresses Aryl hydrocarbon receptor (Homo sapiens, UniProt P35869). The following applies: Potency.

Calls of active or inactive are those of the source. A value given as a limit tells only on which side of the number the result lay.

Benomyl/methotrexate resistance protein, sequence (P28873 whole entry): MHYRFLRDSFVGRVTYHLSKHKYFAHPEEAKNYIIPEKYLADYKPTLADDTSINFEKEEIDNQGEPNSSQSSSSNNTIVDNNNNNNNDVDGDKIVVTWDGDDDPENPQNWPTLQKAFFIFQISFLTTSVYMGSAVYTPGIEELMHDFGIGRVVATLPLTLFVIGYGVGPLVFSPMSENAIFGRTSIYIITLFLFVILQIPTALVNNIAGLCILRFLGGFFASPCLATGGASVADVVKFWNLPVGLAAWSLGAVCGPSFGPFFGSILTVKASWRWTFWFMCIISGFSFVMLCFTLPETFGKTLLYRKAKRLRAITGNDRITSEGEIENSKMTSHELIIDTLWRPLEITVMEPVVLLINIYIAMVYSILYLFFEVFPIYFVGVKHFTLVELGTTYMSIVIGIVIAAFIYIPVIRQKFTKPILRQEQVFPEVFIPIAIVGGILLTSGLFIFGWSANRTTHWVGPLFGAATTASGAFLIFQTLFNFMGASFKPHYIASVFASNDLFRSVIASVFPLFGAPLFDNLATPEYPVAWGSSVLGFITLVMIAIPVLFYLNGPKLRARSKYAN
Melanin-concentrating hormone receptor 1, sequence (Q99705 whole entry): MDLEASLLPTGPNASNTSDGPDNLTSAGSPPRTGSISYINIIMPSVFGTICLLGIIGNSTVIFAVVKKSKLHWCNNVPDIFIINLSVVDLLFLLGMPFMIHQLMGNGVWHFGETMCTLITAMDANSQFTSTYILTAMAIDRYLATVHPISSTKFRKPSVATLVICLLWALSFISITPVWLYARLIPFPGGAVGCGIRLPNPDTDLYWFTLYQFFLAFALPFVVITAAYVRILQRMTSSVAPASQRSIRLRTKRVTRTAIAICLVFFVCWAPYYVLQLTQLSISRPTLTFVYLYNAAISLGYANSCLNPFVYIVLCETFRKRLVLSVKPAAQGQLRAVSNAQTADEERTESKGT
Potassium voltage-gated channel subfamily KQT member 2, sequence (O88943 whole entry): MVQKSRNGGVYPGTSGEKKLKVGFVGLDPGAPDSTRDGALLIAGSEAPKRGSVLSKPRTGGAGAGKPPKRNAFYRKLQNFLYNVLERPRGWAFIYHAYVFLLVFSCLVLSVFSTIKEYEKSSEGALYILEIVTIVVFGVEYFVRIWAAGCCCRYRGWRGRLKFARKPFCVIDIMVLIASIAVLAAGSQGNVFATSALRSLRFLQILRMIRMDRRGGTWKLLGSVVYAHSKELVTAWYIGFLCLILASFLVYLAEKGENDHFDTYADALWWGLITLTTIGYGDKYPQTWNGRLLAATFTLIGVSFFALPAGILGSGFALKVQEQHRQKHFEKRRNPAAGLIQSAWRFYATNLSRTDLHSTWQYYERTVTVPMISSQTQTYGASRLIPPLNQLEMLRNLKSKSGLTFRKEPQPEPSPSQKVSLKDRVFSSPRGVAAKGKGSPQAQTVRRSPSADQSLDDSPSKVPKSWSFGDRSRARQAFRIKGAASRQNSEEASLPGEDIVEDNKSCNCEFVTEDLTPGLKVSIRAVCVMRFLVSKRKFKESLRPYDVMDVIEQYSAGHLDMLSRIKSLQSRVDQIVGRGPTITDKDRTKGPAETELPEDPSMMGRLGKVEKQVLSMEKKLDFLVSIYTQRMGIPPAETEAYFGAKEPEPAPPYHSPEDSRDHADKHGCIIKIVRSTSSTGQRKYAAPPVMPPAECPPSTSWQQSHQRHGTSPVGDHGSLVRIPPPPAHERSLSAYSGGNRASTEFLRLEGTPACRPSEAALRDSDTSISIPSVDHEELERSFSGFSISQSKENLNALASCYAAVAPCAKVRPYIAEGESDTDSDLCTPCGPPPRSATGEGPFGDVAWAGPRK
Dual specificity protein phosphatase 3, sequence (P51452 whole entry): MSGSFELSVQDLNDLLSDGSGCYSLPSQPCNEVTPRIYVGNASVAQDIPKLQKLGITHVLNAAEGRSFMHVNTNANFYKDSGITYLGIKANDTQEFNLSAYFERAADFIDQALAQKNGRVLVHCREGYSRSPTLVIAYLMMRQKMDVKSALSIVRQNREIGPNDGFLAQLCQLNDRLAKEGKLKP

Usually EC50 stands for the concentration at which the effect is half-maximal. With `NC(=O)c1nc(-c2ccco2)nc2c1[nH]c(=O)n2-c1ccc(Cl)c(Cl)c1`, in experiment [1], the half-maximal effective concentration (EC50) is 14 µM (active).
The term AC50 denotes the concentration giving half of the maximal activity seen. Take `CCSc1nnc([C@H](Cc2c[nH]c3ccccc23)NC(=O)OC(C)(C)C)o1`: in [2], the concentration at half-maximal activity (AC50) was 19.5 µM (active).
As for `CCSC1=N/C(=C\c2ccc3c(c2)OCO3)C(=O)S1`, the IC50 in experiment [3] is 25 µM (active); in experiment [4], > 100 µM (inactive); in experiment [5], 64.3 µM (active).
As to `CCc1ccc(NC(=O)Cc2cn(C)c3ccccc23)cc1`, the IC50 in [6] was > 80 µM (inactive); in experiment [7], > 80 µM (inactive); in experiment [8] it was 57 µM (inactive).
In the case of `S=C(c1cn(CCOc2cccc3ccccc23)c2ccccc12)N1CCCC1`, the IC50 in experiment [3] is 32.9 µM (active); in experiment [4], > 100 µM (inactive); in [5], 41.8 µM (active). Also, in [9], the half-maximal activity concentration (AC50) was 4.3 µM (active).
In the case of `OC(CNC1Cc2ccccc2C1)c1ccccc1` (centres undefined), the IC50 was 0.178 µM (active) in experiment [10] and 0.479 µM (active) in experiment [11].
Take `O=C(COc1ccc(F)cc1Cl)Nc1ccccc1C(=O)N1CCCCC1`: in experiment [12], the IC50 is 0.64 µM (active).
Consider `COc1ccc(C(=O)NC(C)CCn2cccn2)cc1OC1CCN(C(C)C)CC1` (centres undefined), for which the results for the IC50 in experiment [10] and in experiment [11] were 4.22 µM (active) and 6.86 µM (active), respectively.
With `Cc1nn(-c2ccccc2)c2c1C(c1ccc(OC(F)F)cc1)C(C#N)=C(N)O2` (centres undefined), the IC50 in experiment [13], in experiment [14], in experiment [15] and in [16] was > 99 µM (inactive) in each case.
Turning to `CCOc1ccc2nc(N(CCCn3ccnc3)C(=O)c3ccc(Cl)s3)sc2c1`, the IC50 in experiment [13], in [14], in experiment [15] and in [16] was > 99 µM (inactive) in each case.
As to `C[C@H]1CN([C@@H](C)CO)C(=O)c2cc(NC(=O)Cc3cn(C)c4ccccc34)ccc2O[C@@H]1CN(C)S(=O)(=O)c1ccc(F)cc1`, the AC50 in experiment [2] was 19.5 µM (active).
On to `CSc1ccc(Oc2c(Cl)cnn(Cc3cccc4ccccc34)c2=O)cc1`, for which, in experiment [17], the IC50 was 1.22 µM (active).
As for `CC(C)(C)C(=O)C(Oc1ccc(Cl)cc1)n1cncn1` (centres undefined) [TRIADIMEFON], the concentration at half-maximal activity (AC50) in experiment [18] is 0.794 µM (inconclusive); in experiment [19], 70.8 µM (inconclusive).
